Like-named read-outs stand apart in the source and are kept apart here.
Columns and labels:
reserpine-induced ptosis = assay: Reserpine-induced ptosis in the rat; assay type: in vivo, male rats of the CF1 strain; conditions: 10 mg/kg oral; reserpine 5 mg/kg i.p.; score scale 0-4, mean to 6th hour vs controls
Description: (§2) The thymoanaleptic properties of the compounds of the invention were determined by means of reserpine-induced ptosis and hypothermia in the rat.
An intraperitoneal dose of 5 mg/kg of reserpine was administered to batches of 5 male rats of the CF1 strain weighing an average of 300 g.
Thirty minutes later a dose of the compound to be studied was given by oral route and the inhibitory effect of the reserpine was noted every hour up to the sixth hour. Ptosis was evaluated for each eye in accordance with the following scale:
4 : eyelids completely closed.
The difference between these two averages represents the average decrease of the ptosis in the treated animals as compared to the controls.

[1] = system: reserpine-induced hypothermia; assay: Reserpine-induced hypothermia in the rat; assay type: in vivo, male rats CF1; conditions: 10 mg/kg oral; reserpine 5 mg/kg i.p.; mean to 6th hour vs controls
Description: as §2
An intraperitoneal dose of 5 mg/kg of reserpine was administered to batches of 5 male rats CF1 weighing an average of 300 g. Thirty minutes later, the rectal temperature was determined and then a dose of the compound to be tested was given by oral route, except to the control animals. The rectal temperature of all the animals including the controls was taken every hour up to the 6th hour.
The difference between these two averages enabled an estimation to be made regarding the antagonistic effect of the compounds of the invention on the hypothermia induced by reserpine.

toxicity of yohimbine = assay: Potentiation of the toxicity of yohimbine (test of QUINTON); assay type: in vivo, male mice; conditions: 20 mg/kg, same conditions (yohimbine hydrochloride 25 mg/kg i.p.; 24 hours)
Description: Yohimbine is a substance which provokes an increase in the serotonine level in the brain or a decrease in norepinephrine according to the author.
For this purpose, the test of QUINTON was used which is described in Brit. J. Pharmacol. 21, 51 (1963). […] […] The percentage of mortality was noted after 24 hours.
Table III hereunder expresses the percentage of potentiation of the toxicity due to yohimbine in comparison with the controls.
The percentage in question was determined 24 hours after the administration of yohimbine.

[2] = system: stereotypies induced by amphetamine; assay: Potentiation of the stereotypies induced by amphetamine; assay type: in vivo, rats; conditions: 10 mg/kg oral; amphetamine 10 mg/kg i.p.; every 30 min for 150 min
Description: It is commonly admitted that amphetamine induces stereotypies by stimulating the dopaminergic receptors and inhibiting the re-uptake of dopamine into the neuron.
The thymoanaleptics potentiate these stereotypies.
Thirty minutes later, a dose of 10 mg/kg of the compound to be tested was given by oral route. Note was taken of the intensity of the stereotypies every 30 minutes for 150 minutes in accordance with the following scale which indicates the behaviour of the animal.
0 : the rat is motionless and asleep
1 : the rat is motionless and awake
3 : the rat stands on its hind paws and sniffs the lid of its cage in a stereotyped manner.
4 : the rat licks the walls of its cage in a stereotyped manner
5 : the rat bites the bars of its cage or sniffs the shavings of its litter in a stereotyped manner
6 : the rat chews the shavings in a stereotyped manner
The average of the 5 results obtained for each batch was calculated and compared with the average obtained with the control animals.
The difference between these averages represents the mean increase of the steroetypies of the treated animals in comparison with the controls.

[3] = system: aggressivity of killer rats; assay: Aggressivity of killer rats; assay type: in vivo, male rats
Description: If, under certain conditions, male rats are kept alone in individual cages for several weeks, the become spontaneously aggressive towards any mouse, which they kill as soon as it is placed in the same cage. Mice were introduced one after another into cages containing an isolated rat and a selection was made of the rats which immediately killed three mice. In this way batches of 6 to 8 rats were constituted. The rats were then given the compound to be studied by intraperitoneal route in such a way that each batch received a higher dose than the preceding batch. […] Table V which follows contains the results obtained 30 minutes after administration of the compound to be studied.

[4] = system: aggressivity of isolated mice; assay: Aggressivity of isolated mice; assay type: in vivo, male mouse; conditions: Mus musculus, read-out: ED50, inhibition of aggressivity
Description: If a male mouse is kept alone in a cage for 3 weeks to 1 month, it will spontanesouly attack any other animal of the same species which is placed in the same cage. If the other animal has also been isolated under the same conditions a series of fights takes place.
Mice were isolated for the period of time required to render them spontaneously aggressive. Couples were then put together and note was taken of the number of fights which took place over a period of 3 minutes. Each batch was composed of four pairs of mice.
The animals of each batch were then treated by intragastric route with the compound to be studied which was administered in such a way that each batch received a higher dose than the preceding batch. […]
The results were expressed in the percentage of decrease in the number of fights between the animals after treatment in comparison with the percentage obtained before treatment which represents the percentage of inhibition of aggressivity.

[5] = system: cholinergic effects provoked by tremorine; assay: Cholinolytic properties: action with respect to tremorine; assay type: in vivo, male mice of the OF1 strain; conditions: 5 mg/kg oral; tremorine 10 mg/kg; difference vs controls
Description: When injected into mice, tremorine and its metabolite, oxotremorine, produce central cholinergic effects, i.e. normal and provoked tremor as well as peripheral cholinergic effects i.e. weeping, sweating diarrhoea and salivation.
Male mice of the OF1 strain weighing 22 g, were divided into batches of 10. Each batch with the exception of the control animals, received, by oral route, a dose of the compound to be tested.
Thirty minutes later, 10 mg/kg of tremorine were administered to all the batches and thirty minutes after the injection of tremorine note was taken of the cholinergic effects on each animal in accordance with the following scale: […]

spontaneous motricity = assay: Spontaneous motricity in the mouse; assay type: in vivo
Description: Tests were also performed with a view to determining whether the compounds of the invention modify spontaneous motricity.

neuromuscular functions = assay: Rotarod test of BOISSIER / neuromuscular functions; assay type: in vivo, mouse; conditions: 30 minutes after oral administration, mouse
[6] = system: contractile reaction of the nictitating membrane; assay: Ganglioplegic activity on the anesthetized cat (nictitating membrane); assay type: in vivo; conditions: intravenous 0.005, 0.1 and 1 mg/kg
Description: The tonus of the nictitating membrane was first noted after which the contractile reaction of the membrane to electric stimulation of the preganglionic fibre of the cervical sympathetic nerve was tested.

[7] = Toxicity, method of KARBER and BEHRENS, mice; conditions: mouse, in vivo, po
Description: (§1) Finally, tests of toxicity were performed with compounds of the invention following the method of KARBER and BEHRENS.

[8] = Toxicity, method of KARBER and BEHRENS, rats; conditions: rat, in vivo
Description: as §1

## CC(Oc1cccc2ccccc12)C(N)=NO (stereo not drawn) [Compound 1, 2-(1-Naphthyloxy)-propionamidoxime]
reserpine-induced ptosis
  Average decrease of Ptosis: 1.7
[1]
  Average inhibition of hypothermia (positive °C): 0.7 °C
Toxicity of yohimbine
  Potentiation of the toxicity of yohimbine: 50%
[2]
  Average increase of the stereotypies: 1
[3]; Rattus norvegicus, ip, 0.5 h, 3 mg/kg i.p., 30 minutes after administration
  inhibition in vivo at 3 mg/kg: 100%
[3]; conclusion from Table V
  antiaggressive properties: powerful antiaggressive properties
[4]; po, 1.5 h, intragastric route, 90 minutes after administration
  ED50: 0.42 mg/kg
[4]; oral route
  ED50: 0.63 mg/kg
[5]
  Central response tremor: Normal: 0
  Central response tremor: Provoked: 0
  Peripheral cholinergic response: Salivat.: 0
  Peripheral cholinergic response: Sweating: 0
  Peripheral cholinergic response: Weeping: 0
Spontaneous motricity; 3 mg/kg intragastric, mouse
  effect on curiosity of the animal: without, however modifying the curiosity of the animal
Spontaneous motricity; 3 mg/kg intragastric, mouse, 30 minutes after administration
  reduction of spontaneous motricity: 50%
Spontaneous motricity; conclusion from ratio of doses
  sedation at doses active against aggressivity: not sedative at the doses which are active against aggressivity
Neuromuscular functions
  neurotoxic dose 50 (NTD 50) relative to ED50 (isolated mouse): sufficiently far removed from the ED50
[6]
  intensity of the contractions of the nictitating membrane (ganglioplegic effect): did not modify the intensity of the contractions of the membrane
[7]
  LD50 at 24 h: 380 mg/kg
[8]; ip
  LD50 at 24 h: 50 mg/kg
[8]; po
  LD50 at 24 h: 108 mg/kg
